From patent publication EP1273297A1, “Vitamin E for the treatment of diseases in which the binding of the transcription factor NF-KB and/or AP-1 to promoter target sites has a beneficial effect (eg AIDS, cardiac infarction)” (Deutsches Krebsforschungszentrum Stiftung des öffentlichen …, priority 2001, dated 2003)

What was measured:
[1] = system: human peripheral blood T cells; test: AICD of day 6 prestimulated peripheral blood T cells restimulated with plate-bound α-CD3, cell death by propidium iodide uptake; assay type: cell-based; settings: depending on the blood donors; vitamin E at physiological concentrations
Procedure: Freshly isolated blood T cells were stimulated by PHA and cultured in the presence of IL-2 for 6 days as described in Klas et al., Int. Immunol. 5 (1993), 625. The day 6 prestimulated T cells were then treated without or with 25 µM vitamin E (VE) Sigma (St. Louis, MO, USA) for 1 h and subsequently cultured in 96-well-flat-bottomed plates coated with α-CD3 (OKT3, 50 µg/ml; (DKFZ, Prof. Krammer) in the absence or presence of CD95-Fc (50 µg/ml; (DKFZ, Prof. Krammer, Dhein et al., Nature 373 (1995), 438) or control human (50 µg/ml) IgG-1. Cell death was assessed after a further 48 h by propidium iodide (PI) uptake (Klas et al., Int. Immunol. 5 (1993), 625.
Since activation-induced-cell-death (AICD) is a major cause of T cell depletion in AIDS and since supplementation of vitamin E is shown to increase T cell numbers, it was investigated whether vitamin E could protect from T cell depletion by AICD. To analyze the effect of vitamin E on T cell death, freshly isolated peripheral blood T cells were prestimulated for 6 days (referred to as day 6 cells) and subsequently restimulated via the TCR by plate-bound α-CD3 antibodies. […] CD95 (APO-1/Fas) and its ligand (CD95L) are known to play a major role in AICD of T cells. […] The concentration of vitamin E in plasma from healthy individuals normally ranges from 12-35 µM. Thus, vitamin E at physiological concentrations may attenuate AICD. […]

CD95L mRNA [2] = test: CD95L mRNA levels by RT-PCR in day 6 T cells stimulated with plate bound α-CD3; assay type: cell-based, human; settings: 25 µM vitamin E 1 h, then α-CD3 12 h (Fig. 1B)
Procedure: (§1) The day 6 T cells were cultured in the absence or presence of 25 µM vitamin E for 1 h and then stimulated for 12 h with plate bound α-CD3. The mRNA was analyzed by RT-PCR using primers specific for CD95L (Eichhorst et al., Mol. Cell. Biol. 20 (2000), 7826) . For controls, primers for IFNγ and β-actin were used. The primers had the following sequences: • CD95L: sense-5'-[…]-3' antisense-5'[…]-3' • IFN-γ: sense-5'[…]-3' antisense-5'[…]-3' • human β-actin: sense-5'[…]-3' antisense-5'[…]-3'
(§2) Since activation-induced-cell-death (AICD) is a major cause of T cell depletion in AIDS and since supplementation of vitamin E is shown to increase T cell numbers, it was investigated whether vitamin E could protect from T cell depletion by AICD. To analyze the effect of vitamin E on T cell death, freshly isolated peripheral blood T cells were prestimulated for 6 days (referred to as day 6 cells) and subsequently restimulated via the TCR by plate-bound α-CD3 antibodies. […] CD95 (APO-1/Fas) and its ligand (CD95L) are known to play a major role in AICD of T cells. […] The concentration of vitamin E in plasma from healthy individuals normally ranges from 12-35 µM. Thus, vitamin E at physiological concentrations may attenuate AICD. Indeed, depending on the blood donors, vitamin E reduced AICD by 20-50%. […]

IFNγ mRNA [3] = test: IFNγ mRNA levels by RT-PCR (control) in day 6 T cells stimulated with plate bound α-CD3; assay type: cell-based, human; settings: 25 µM vitamin E 1 h, then α-CD3 12 h (Fig. 1B)
Procedure: as §1, §2

Jurkat J-27 T cells = test: AICD of Jurkat J-27 T cells, apoptotic nuclei by DNA fragmentation; assay type: cell-based; settings: J-27 cells
Procedure: J-27 T cells were induced either with PMA (10 ng/ml) Sigma (St. Louis, MO, USA) and ionomycin (0.5 µM), Calbiochem (Bad Soden/Ts, Germany) or with plate bound α-CD3 (OKT3, 50 µg/ml) for 24 h in the presence of vitamin E or equal amount of the vitamin E solvent ethanol. Apoptotic nuclei were measured by determination of DNA fragmentation (Dhein et al., Nature 373 (1995), 438).
J-27 cells were stimulated in the absence or presence of CD95-Fc (50 µg/ml) or NOKI (50 µg/ml). BD-Pharmingen (Heidelberg, Germany), for 24 h.
(§3) To further investigate the molecular mechanism by which vitamin E attenuates AICD, several Jurkat T cell sub-clones susceptible to T-cell-receptor (TCR)-mediated-activation-induced apoptosis were selected. Data from one of the representative clones, clone 27 (J-27) is presented here. Activation of T cells through the T cell receptor can be mimicked by stimulation with the phorbol ester (PMA) and calcium ionophores (ionomycin). […] Therefore, it is unlikely that vitamin E directly interferes with signals downstream of the CD95 receptor. […] Thus, vitamin E may reduce CD95L expression at the transcriptional level and, therefore, attenuate AICD in J-27 cells. Experimental details are given in the legend to Figure 2.

J-27 cells = test: α-APO-1 induced CD95-triggered apoptosis in J-27 cells; assay type: cell-based; settings: 50 µM vitamin E 1 h, then α-APO-1 10 ng/ml with 10 ng/ml protein A (Fig. 2D)
Procedure: J-27 cells were cultured in the absence or presence of 50 µM vitamin E for 1 h and than, treated with α-APO-1 (10 ng/ml) antibody, DKFZ, Prof. Krammer, Trauth et al., Science 245 (1989), 301 in the presence of 10 ng/ml protein A for the indicated times.
as §3

CD95L mRNA [4] = test: CD95L mRNA expression by RT-PCR in J-27 T cells stimulated by PMA and ionomycin; assay type: cell-based; settings: J-27 cells
Procedure: (§4) J-27 T cells were cultured in the absence or presence of 50 µM vitamin E for 1 h and then stimulated by PMA (10 ng/ml) and ionomycin (0.5 µM) for the indicated times. CD95L mRNA expression was analyzed by RT-PCR. Primers for IFNγ and β-actin were used as controls.
as §3

IFNγ mRNA [5] = test: IFNγ mRNA by RT-PCR (control) in J-27 T cells stimulated by PMA and ionomycin; assay type: cell-based; settings: J-27 cells, 50 µM vitamin E, PMA/ionomycin (Fig. 2E)
Procedure: as §4, §3

In the case of `Cc1c(C)c2c(c(C)c1O)CC[C@@](C)(CCC[C@H](C)CCC[C@H](C)CCCC(C)C)O2` [vitamin E, α-tocopherol], the “reduced AICD” value [1] is reported as 20-50%, the “increase of CD95L mRNA expression upon restimulation” value (CD95L mRNA [2]) is reported as “blocked” and the “levels of IFNγ mRNA” value (IFNγ mRNA [3]) is reported as “did not significantly influence”. The PMA/ionomycin-induced cell death (Jurkat J-27 T cells; PMA 10 ng/ml and ionomycin 0.5 µM, 24 h (Fig. 2A, B)) was “significantly reduced”, the α-CD3-induced cell death (Jurkat J-27 T cells; plate bound α-CD3 (OKT3, 50 µg/ml) 24 h (Fig. 2A, B)) was “significantly reduced” and the “α-APO-1 induced CD95-triggered apoptosis” value (J-27 cells) was “did not prevent”. For the same molecule, the “CD95L mRNA expression” value (CD95L mRNA [4]; 50 µM vitamin E 1 h, then PMA/ionomycin (Fig. 2E)) was “substantially reduced”, the “reduction of CD95L mRNA expression” value (CD95L mRNA [4]; 50 µM vitamin E, 3 h post stimulation (Fig. 2E)) was “readily seen” and the “CD95L mRNA expression” value (CD95L mRNA [4]; 50 µM vitamin E, 6 h post stimulation (Fig. 2E)) was “nearly completely blocked”. For the same molecule, the “levels of IFNγ mRNA” value (IFNγ mRNA [5]) was “not significantly changed”.
